Measurements reported in article PMC13388172 (Frontiers in Pharmacology, 2026).

Assay: Therapeutic drug monitoring of serum ETI components and metabolites (UPLC-MS/MS), hourly for 9 hours after ingestion
Type: in vivo
Settings: female, human, oral, full dose ETI, one pwCF, sampled hourly for 9 hours after ingestion, read-out: Area under the curve (AUC), serum
Experimental: The analytes of interest were assayed using an ultra-performance liquid chromatography tandem mass spectrometry method. In the concentration range from 0.01 to 20.0 mg/L, calibration curves were linear with a correlation coefficient >0.999 for all analytes.
Repeat TDM was conducted after a month on this reduced dosing strategy as this was felt likely to provide adequate time for steady-state concentrations to be achieved.

- AUC: 92600 ng·h/mL
Structure (SMILES): CC(C)(CO)c1cc2cc(NC(=O)C3(c4ccc5c(c4)OC(F)(F)O5)CC3)c(F)cc2n1C[C@@H](O)CO [tezacaftor]
